We go through 36 compounds from patent US11279687B2, “Compounds and compositions for the inhibition of NAMPT” (Valo Health, Inc., priority 2010, dated 2022).

Like-named read-outs stand apart in the source and are kept apart here.

One assay addresses NAMPT (Homo sapiens (Human), UniProt P43490). As to the kind of experiment: NAMPT biochemical inhibition assay (NMN quantified by mass spectrometry). The settings on record: NAMPT biochemical inhibition; read-out: Biochem IC50.
The subject of another assay is A2780 cells. Nature of the assay: In-vitro cell proliferation assay (SRB), A2780 cells.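 Note: viable cell number read as SRB absorbance, background from media-only wells subtracted, IC50 interpolated from percent inhibition at two bracketing compound concentrations.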 It is filed as cell-based. To be noted: read-out: A2780 IC50.
The mark [1] stands for this setting: Homo sapiens, A2780, 72 h, A2780 cells, 72 hours, SRB.

Sequence of NAMPT (P43490 whole entry): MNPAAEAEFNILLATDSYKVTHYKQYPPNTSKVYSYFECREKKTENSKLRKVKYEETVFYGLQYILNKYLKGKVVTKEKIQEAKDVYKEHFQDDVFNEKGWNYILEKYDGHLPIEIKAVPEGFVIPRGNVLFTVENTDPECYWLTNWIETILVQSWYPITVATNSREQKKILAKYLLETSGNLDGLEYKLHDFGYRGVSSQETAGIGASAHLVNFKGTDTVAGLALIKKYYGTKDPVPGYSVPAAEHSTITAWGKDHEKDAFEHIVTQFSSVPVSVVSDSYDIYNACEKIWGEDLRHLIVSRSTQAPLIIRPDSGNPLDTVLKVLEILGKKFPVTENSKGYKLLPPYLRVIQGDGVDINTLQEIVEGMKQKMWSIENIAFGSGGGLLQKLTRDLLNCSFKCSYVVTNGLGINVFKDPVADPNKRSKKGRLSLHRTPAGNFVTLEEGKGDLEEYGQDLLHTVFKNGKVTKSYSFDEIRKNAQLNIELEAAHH

Broadly, the IC50 is the midpoint of a concentration-inhibition curve. With `CN(C)c1ccc(S(=O)(=O)c2ccc(NC(=O)NCc3cccnc3)cc2)cn1` [3-{4-[6-(dimethylamino)pyridine-3-sulfonyl]phenyl}-1-(pyridin-3-ylmethyl)urea], the IC50 on NAMPT worked out at 3 nM; in the assay on A2780 cells (setting [1]) it was 74.9 nM.
Regarding `O=C(NCc1cccnc1)Nc1ccc(S(=O)(=O)N2CCN(C(=O)[C@H]3CCCO3)CC2)cc1` [1-[4-(4-{[(2R)-oxolan-2-yl]carbonyl[piperazine-1-sulfonyl)phenyl]-3-(pyridin-3-ylmethyl)urea], the IC50 on NAMPT is 8 nM; in the assay with A2780 cells (A2780 cells, 72 hours, SRB), 30 nM.
`O=C(NCc1cccnc1)Nc1ccc(S(=O)(=O)N2CCN(C(=O)Cc3ccccc3)CC2)cc1` [1-{4-[4-(2-phenylacetyl)piperazine-1-sulfonyl]phenyl}-3-(pyridin-3-ylmethyl)urea]: the IC50 was 3 nM on NAMPT and 932 nM in the assay with A2780 cells (setting [1]).
Regarding `O=C(NCc1cccnc1)Nc1ccc(S(=O)(=O)c2ccccc2Br)cc1` [3-{4-[(2-bromobenzene)sulfonyl]phenyl}-1-(pyridin-3-ylmethyl)urea], the IC50 at NAMPT was determined as 6 nM; in the assay on A2780 cells (setting [1]), 250 nM.
Consider `COc1cc(F)ccc1NS(=O)(=O)c1ccc(NC(=O)NCc2cccnc2)cc1` [3-{4-[(4-fluoro-2-methoxyphenyl)sulfamoyl]phenyl}-1-(pyridin-3-ylmethyl)urea], for which the half-maximal inhibitory concentration (IC50) was 7 nM on NAMPT and 116 nM in the assay on A2780 cells (setting [1]).
In the same order, the values of `CC(C)COc1cc(F)cc(S(=O)(=O)c2ccc(NC(=O)NCc3cccnc3)cc2)c1` [3-(4-{[3-fluoro-5-(2-methylpropoxy)benzene]sulfonyl}phenyl)-1-(pyridin-3-ylmethyl)urea] are 4 nM and 56.4 nM.
In the same order, the values of `COc1cccc(C2(N3CCN(S(=O)(=O)c4ccc(NC(=O)NCc5cccnc5)cc4)CC3)CCC(C)CC2)c1` (stereo not drawn) [3-(4-{4-[1-(3-methoxyphenyl)-4-methylcyclohexyl]piperazine-1-sulfonyl}phenyl)-1-(pyridin-3-ylmethyl)urea] are 4 nM and 5 nM.
On the same counts, the results for `COc1ncc(S(=O)(=O)c2ccc(NC(=O)NCc3cccnc3)cc2)c(OC)n1` [3-[4-(2,4-dimethoxypyrimidine-5-sulfonyl)phenyl]-1-(pyridin-3-ylmethyl)urea] are 6.7 nM and 21 nM.
Consider `O=C(NCc1cccnc1)Nc1ccc(S(=O)(=O)N2CCc3ccccc32)cc1` [3-[4-(2,3-dihydro-1H-indole-1-sulfonyl)phenyl]-1-(pyridin-3-ylmethyl)urea], for which the IC50 on NAMPT was 2 nM; in the assay with A2780 cells (setting [1]) it was 31 nM.
On the same counts, the results for `O=C(NCc1cccnc1)Nc1ccc(S(=O)(=O)c2cccnc2N2CCOCC2)cc1` [1-{4-[2-(morpholin-4-yl)pyridine-3-sulfonyl]phenyl}-3-(pyridin-3-ylmethyl)urea] are 16 nM and 100 to 1000 nM.
In the same order, the values of `O=C(NCc1cccnc1)Nc1ccc(S(=O)(=O)Nc2cc(C(F)(F)F)ccc2N2CCCCC2)cc1` [3-(4-{[2-(piperidin-1-yl)-5-(trifluoromethyl)phenyl]sulfamoyl}phenyl)-1-(pyridin-3-ylmethyl)urea] are 5 nM and 22 nM.
For the compound `Cc1ccc(C)c(NS(=O)(=O)c2ccc(NC(=O)NCc3cccnc3)cc2)c1` [3-{4-[(2,5-dimethylphenyl)sulfamoyl]phenyl}-1-(pyridin-3-ylmethyl)urea], the IC50 on NAMPT was determined as 6 nM; with A2780 cells (setting [1]), 116 nM.
In the same order, the values of `COc1ccc2cc(S(=O)(=O)c3ccc(NC(=O)NCc4cccnc4)cc3)ccc2c1` [3-[4-(6-methoxynaphthalene-2-sulfonyl)phenyl]-1-(pyridin-3-ylmethyl)urea] are 1.6 nM and 100 to 1000 nM.
As for `CC(C)C(=O)Nc1cccc(S(=O)(=O)c2ccc(NC(=O)NCc3cccnc3)cc2)c1` [2-methyl-N-{3-[(4-{[(pyridin-3-ylmethyl)carbamoyl]amino}benzene)sulfonyl]phenylJpropanamide], the IC50 turned out to be 1.2 nM at NAMPT and 10.1 nM with A2780 cells (A2780 cells, 72 hours, SRB).
`O=C(NCc1cccnc1)Nc1ccc(S(=O)(=O)c2ccc(Cl)cc2Cl)cc1` [3-{4-[(2,4-dichlorobenzene)sulfonyl]phenyl}-1-(pyridin-3-ylmethyl)urea]: the IC50 came out at 4 nM on NAMPT and 827 nM in the assay on A2780 cells (setting [1]).
In the case of `Cc1cc(NS(=O)(=O)c2ccc(NC(=O)NCc3cccnc3)cc2)ccc1C(C)C` [3-(4-{[3-methyl-4-(propan-2-yl)phenyl]sulfamoyl}phenyl)-1-(pyridin-3-ylmethyl)urea], the IC50 was found to be 2 nM at NAMPT and 108 nM in the assay on A2780 cells (setting [1]).
In the case of `Cc1ccc(NS(=O)(=O)c2ccc(NC(=O)NCc3cccnc3)cc2)c(F)c1` [3-{4-[(2-fluoro-4-methylphenyl)sulfamoyl]phenyl}-1-(pyridin-3-ylmethyl)urea], the IC50 was found to be 2 nM at NAMPT and 157 nM in the assay with A2780 cells (setting [1]).
In the same order, the values of `O=C(NCc1cccnc1)Nc1ccc(S(=O)(=O)c2cccc(Cl)c2Cl)cc1` [3-{4-[(2,3-dichlorobenzene)sulfonyl]phenyl}-1-(pyridin-3-ylmethyl)urea] are 1 nM and 446 nM.
In the same order, the values of `O=C(Nc1cccnc1)c1ccc(S(=O)(=O)c2ccccc2)cc1` [4-(benzenesulfonyl)-N-(pyridin-3-yl)benzamide] are 1890 nM and 2730 nM.
Take `COc1cccc(OC)c1S(=O)(=O)c1ccc(NC(=O)NCc2cccnc2)cc1` [3-{4-[(2,6-dimethoxybenzene)sulfonyl]phenyl}-1-(pyridin-3-ylmethyl)urea]: the IC50 at NAMPT came out at 7 nM; in the assay with A2780 cells (setting [1]) it was 26 nM.
On to `CC(C)c1ccc(CN2CCN(S(=O)(=O)c3ccc(NC(=O)NCc4cccnc4)cc3)CC2)cc1` [3-[4-(4-{[4-(propan-2-yl)phenyl]methyl[piperazine-1-sulfonyl)phenyl]-1-(pyridin-3-ylmethyl)urea], for which the IC50 was 35.8 nM at NAMPT and 1000 to 10000 nM in the assay with A2780 cells (A2780 cells, 72 hours, SRB).
Consider `Cc1ccc(F)c(S(=O)(=O)c2ccc(NC(=O)NCc3cccnc3)cc2)c1Cl` [3-{4-[(2-chloro-6-fluoro-3-methylbenzene)sulfonyl]phenyl}-1-(pyridin-3-ylmethyl)urea], for which the IC50 at NAMPT came out at 7 nM; in the assay with A2780 cells (setting [1]) it was 336 nM.
As to `CCOc1cccc(S(=O)(=O)c2ccc(NC(=O)NCc3cccnc3)cc2)c1` [3-{4-[(3-ethoxybenzene)sulfonyl]phenyl}-1-(pyridin-3-ylmethyl)urea], the figures for the IC50 at NAMPT and in the assay on A2780 cells (setting [1]) were 1.7 nM and 83.7 nM, respectively.
In the case of `O=C(NCc1cccnc1)Nc1ccc(S(=O)(=O)N2CCC(N3C(=O)Cc4ccccc43)CC2)cc1` [1-{4-[4-(2-oxo-2,3-dihydro-1H-indol-1-yl)piperidine-1-sulfonyl]phenyl}-3-(pyridin-3-ylmethyl)urea], the IC50 at NAMPT was found to be 3 nM; in the assay on A2780 cells (Homo sapiens, A2780, 72 h) it was 58 nM.
Consider `CCN(CC)C(=O)c1cc(Cl)cc(S(=O)(=O)c2ccc(NC(=O)NCc3cccnc3)cc2)c1` [3-chloro-N,N-diethyl-5-[(4-{[(pyridin-3-ylmethyl)carbamoyl]amino}benzene)sulfonyl]benzamide], for which the IC50 is 3.5 nM at NAMPT and 1.7 nM in the assay on A2780 cells (setting [1]).
In the same order, the values of `O=C(Nc1ccc(S(=O)(=O)c2ccccc2)cc1)Nc1ccc2ncccc2c1` [3-[4-(benzenesulfonyl)phenyl]-1-(quinolin-6-yl)urea] are 90 nM and 15900 nM.
On the same counts, the results for `Cc1ccc(Cl)cc1NS(=O)(=O)c1ccc(NC(=O)NCc2cccnc2)cc1` [3-{4-[(5-chloro-2-methylphenyl)sulfamoyl]phenyl}-1-(pyridin-3-ylmethyl)urea] are 1 nM and 35 nM.
On the same counts, the results for `Cc1cccc(S(=O)(=O)c2ccc(NC(=O)NCc3cccnc3)cc2)c1` [3-{4-[(3-methylbenzene)sulfonyl]phenyl}-1-(pyridin-3-ylmethyl)urea] are 2 nM and 157 nM.
With `Nc1ccc(CNC(=O)Nc2ccc(S(=O)(=O)c3ccc(F)cc3)cc2)cn1` [1-[(6-aminopyridin-3-yl)methyl]-3-{4-[(4-fluorobenzene)sulfonyl]phenyl}urea], the figures for the IC50 at NAMPT and in the assay on A2780 cells (setting [1]) were 2 nM and 43 nM, respectively.
In the same order, the values of `O=C(NCc1cccnc1)Nc1ccc(S(=O)(=O)Nc2ccccc2Cl)cc1` [3-{4-[(2-chlorophenyl)sulfamoyl]phenyl}-1-(pyridin-3-ylmethyl)urea] are 3 nM and 41 nM.
In the same order, the values of `O=C(NCc1cccnc1)Nc1ccc(S(=O)(=O)Nc2cc(C(F)(F)F)ccc2N2CCOCC2)cc1` [3-(4-{[2-(morpholin-4-yl)-5-(trifluoromethyl)phenyl]sulfamoyl}phenyl)-1-(pyridin-3-ylmethyl)urea] are 8 nM and 7 nM.
On the same counts, the results for `COc1ccc(NS(=O)(=O)c2ccc(NC(=O)NCc3cccnc3)cc2)cc1OC` [3-{4-[(3,4-dimethoxyphenyl)sulfamoyl]phenyl]-1-(pyridin-3-ylmethyl)urea] are 5 nM and 116 nM.
As for `O=C(NCc1cccnc1)c1ccc(S(=O)(=O)c2ccccc2)cc1` [4-(benzenesulfonyl)-N-(pyridin-3-ylmethyl)benzamide], the results for the IC50 at NAMPT and with A2780 cells (setting [1]) were 80.5 nM and 216 nM, respectively.
On the same counts, the results for `O=C(NCc1cccnc1)Nc1ccc(S(=O)(=O)N2CCN(c3c(Cl)cncc3Cl)CC2)cc1` [3-{4-[4-(3,5-dichloropyridin-4-yl)piperazine-1-sulfonyl]phenyl}-1-(pyridin-3-ylmethyl)urea] are 3 nM and 29 nM.
On the same counts, the results for `CCOc1ccc(S(=O)(=O)c2ccc(NC(=O)NCc3cccnc3)cc2)cc1F` [3-{4-[(4-ethoxy-3-fluorobenzene)sulfonyl]phenyl}-1-(pyridin-3-ylmethyl)urea] are 1.2 nM and 21.7 nM.
On the same counts, the results for `O=C(NCc1cc2ccncc2s1)Nc1ccc(S(=O)(=O)c2ccccc2)cc1` [1-[4-(benzenesulfonyl)phenyl]-3-{thieno[2,3-c]pyridin-2-ylmethyl}urea] are 460 nM and more than 30000 nM.
